Like-named read-outs stand apart in the source and are kept apart here. Values belong to the molecule of their own block, whether it stands above or below them.
How the values were obtained:
[1] = target: T1, FL-SMARCA2 (full-length human SMARCA2 isoform 1) (Homo sapiens, UniProt P51531); assay: SMARCA2 ATPase activity assay (ADP-Glo, chicken mononucleosome substrate); assay type: biochemical; conditions: ATP 250 uM
T1 construct: FLAG tag (YKDDDDK) (C); made in house; host or cells: Sf21 insect cells (baculovirus, pFastBacI)
Text: Molecular Biology: Full-length human SMARCA2 isoform 1 (P51531) transcript clone was amplified from a cDNA library incorporating an N-terminal HIS tag ([…]) fused directly to Ser2 of SMARCA2 and a C-FLAG tag (YKDDDDK) fused directly to Glu1590 of SMARCA2. The amplified gene was subcloned into pFastBacI (Life Technologies).
Protein Expression: Recombinant baculovirus were generated and protein over-expression was accomplished by infecting exponentially growing Sf21 insect cell culture at 1.24×10^6 cell/ml with an MOI of 0.1. Infections were carried out for 76 hours, harvested by centrifugation, and stored at −80° C. for purification.
Expressed full-length SMARCA2 was purified from cell paste by FLAG affinity chromatography followed by anion exchange chromatography. The protein was dialyzed into a storage buffer containing 25 mM HEPES, 300 mM KCl, 10% Glycerol, pH 7.9, 1 mM TCEP and 0.01% Tween-20. The purity of the protein was measured as 74% using micro-capillary based gel electrophoresis.

[2] = target: FL-SMARCA4 (Homo sapiens, UniProt P51532); assay: SMARCA4 ATPase activity assay (ADP-Glo, chicken mononucleosome substrate)
[3] = Table 3a.1, SMARCA2 5 nM, mononucleosome 10 nM
[4] = FL-SMARCA4 IC50, Table 3a.2, SMARCA4 5 nM, ATP 250 uM, mononucleosome 10 nM
[5] = Table 3b.1, SMARCA2 5 nM, mononucleosome 10 nM
[6] = FL-SMARCA4 IC50, Table 3b.2, SMARCA4 5 nM, ATP 250 uM, mononucleosome 10 nM
[7] = Table 3c.1, ATPase assay, enzyme 5 nM, chicken mononucleosome 10 nM, 30 min preincubation
[8] = FL-SMARCA4 IC>50, Table 3c.2, ATPase assay, enzyme 5 nM, ATP 250 uM, chicken mononucleosome 10 nM, 30 min preincubation
[9] = Table 3d.1, ATPase assay, enzyme 5 nM, chicken mononucleosome 10 nM, 30 min preincubation, read-out: FL-SMARCA2 IC>50
[10] = Table 3.1, ATPase assay, enzyme 5 nM, chicken mononucleosome 10 nM, 30 min preincubation
[11] = FL-SMARCA4 IC50, Table 3.2, ATPase assay, enzyme 5 nM, ATP 250 uM, chicken mononucleosome 10 nM, 30 min preincubation

Sequence of FL-SMARCA4 (P51532 whole entry): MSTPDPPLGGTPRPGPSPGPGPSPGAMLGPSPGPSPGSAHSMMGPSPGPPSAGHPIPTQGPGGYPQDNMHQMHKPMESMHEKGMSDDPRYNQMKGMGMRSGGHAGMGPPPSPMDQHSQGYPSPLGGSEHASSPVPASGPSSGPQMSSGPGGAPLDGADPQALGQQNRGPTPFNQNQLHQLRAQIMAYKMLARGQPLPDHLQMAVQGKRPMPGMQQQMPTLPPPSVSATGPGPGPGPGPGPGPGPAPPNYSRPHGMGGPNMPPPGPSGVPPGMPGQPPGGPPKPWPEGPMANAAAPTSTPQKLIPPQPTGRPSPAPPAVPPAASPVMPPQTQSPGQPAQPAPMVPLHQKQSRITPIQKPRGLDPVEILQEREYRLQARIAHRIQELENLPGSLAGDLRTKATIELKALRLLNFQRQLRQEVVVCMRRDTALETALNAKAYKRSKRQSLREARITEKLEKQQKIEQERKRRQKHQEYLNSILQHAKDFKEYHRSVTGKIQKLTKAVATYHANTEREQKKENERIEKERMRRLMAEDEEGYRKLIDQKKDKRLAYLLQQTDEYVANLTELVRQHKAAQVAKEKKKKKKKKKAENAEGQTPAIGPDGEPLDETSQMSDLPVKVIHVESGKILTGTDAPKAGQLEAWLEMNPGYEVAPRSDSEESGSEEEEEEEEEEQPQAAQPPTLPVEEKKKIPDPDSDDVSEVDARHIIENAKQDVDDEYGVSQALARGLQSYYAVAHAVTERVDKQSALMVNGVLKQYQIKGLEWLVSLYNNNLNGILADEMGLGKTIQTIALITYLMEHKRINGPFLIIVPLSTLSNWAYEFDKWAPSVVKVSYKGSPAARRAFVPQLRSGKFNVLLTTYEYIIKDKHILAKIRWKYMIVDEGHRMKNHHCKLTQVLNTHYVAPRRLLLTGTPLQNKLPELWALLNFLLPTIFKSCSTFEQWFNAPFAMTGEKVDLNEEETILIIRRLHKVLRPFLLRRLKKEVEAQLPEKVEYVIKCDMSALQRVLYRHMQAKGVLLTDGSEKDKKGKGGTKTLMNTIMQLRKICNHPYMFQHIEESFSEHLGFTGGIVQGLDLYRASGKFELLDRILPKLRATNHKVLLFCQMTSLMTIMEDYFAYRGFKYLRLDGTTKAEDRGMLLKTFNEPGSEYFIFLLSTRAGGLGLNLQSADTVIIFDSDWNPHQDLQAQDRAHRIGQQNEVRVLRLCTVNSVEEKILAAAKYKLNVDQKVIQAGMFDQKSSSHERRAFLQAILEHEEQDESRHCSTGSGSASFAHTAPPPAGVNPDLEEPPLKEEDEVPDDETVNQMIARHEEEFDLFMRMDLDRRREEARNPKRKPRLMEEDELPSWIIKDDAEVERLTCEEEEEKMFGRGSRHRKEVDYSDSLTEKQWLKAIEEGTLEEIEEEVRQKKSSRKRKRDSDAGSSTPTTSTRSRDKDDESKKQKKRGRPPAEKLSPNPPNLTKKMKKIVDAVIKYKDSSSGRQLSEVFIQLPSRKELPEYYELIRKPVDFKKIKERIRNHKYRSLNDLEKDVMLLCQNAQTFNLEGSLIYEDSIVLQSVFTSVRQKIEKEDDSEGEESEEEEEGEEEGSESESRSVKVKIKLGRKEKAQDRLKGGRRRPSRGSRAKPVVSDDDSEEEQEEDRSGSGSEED
T1 sequence (P51531 with tags, fused parts or gaps): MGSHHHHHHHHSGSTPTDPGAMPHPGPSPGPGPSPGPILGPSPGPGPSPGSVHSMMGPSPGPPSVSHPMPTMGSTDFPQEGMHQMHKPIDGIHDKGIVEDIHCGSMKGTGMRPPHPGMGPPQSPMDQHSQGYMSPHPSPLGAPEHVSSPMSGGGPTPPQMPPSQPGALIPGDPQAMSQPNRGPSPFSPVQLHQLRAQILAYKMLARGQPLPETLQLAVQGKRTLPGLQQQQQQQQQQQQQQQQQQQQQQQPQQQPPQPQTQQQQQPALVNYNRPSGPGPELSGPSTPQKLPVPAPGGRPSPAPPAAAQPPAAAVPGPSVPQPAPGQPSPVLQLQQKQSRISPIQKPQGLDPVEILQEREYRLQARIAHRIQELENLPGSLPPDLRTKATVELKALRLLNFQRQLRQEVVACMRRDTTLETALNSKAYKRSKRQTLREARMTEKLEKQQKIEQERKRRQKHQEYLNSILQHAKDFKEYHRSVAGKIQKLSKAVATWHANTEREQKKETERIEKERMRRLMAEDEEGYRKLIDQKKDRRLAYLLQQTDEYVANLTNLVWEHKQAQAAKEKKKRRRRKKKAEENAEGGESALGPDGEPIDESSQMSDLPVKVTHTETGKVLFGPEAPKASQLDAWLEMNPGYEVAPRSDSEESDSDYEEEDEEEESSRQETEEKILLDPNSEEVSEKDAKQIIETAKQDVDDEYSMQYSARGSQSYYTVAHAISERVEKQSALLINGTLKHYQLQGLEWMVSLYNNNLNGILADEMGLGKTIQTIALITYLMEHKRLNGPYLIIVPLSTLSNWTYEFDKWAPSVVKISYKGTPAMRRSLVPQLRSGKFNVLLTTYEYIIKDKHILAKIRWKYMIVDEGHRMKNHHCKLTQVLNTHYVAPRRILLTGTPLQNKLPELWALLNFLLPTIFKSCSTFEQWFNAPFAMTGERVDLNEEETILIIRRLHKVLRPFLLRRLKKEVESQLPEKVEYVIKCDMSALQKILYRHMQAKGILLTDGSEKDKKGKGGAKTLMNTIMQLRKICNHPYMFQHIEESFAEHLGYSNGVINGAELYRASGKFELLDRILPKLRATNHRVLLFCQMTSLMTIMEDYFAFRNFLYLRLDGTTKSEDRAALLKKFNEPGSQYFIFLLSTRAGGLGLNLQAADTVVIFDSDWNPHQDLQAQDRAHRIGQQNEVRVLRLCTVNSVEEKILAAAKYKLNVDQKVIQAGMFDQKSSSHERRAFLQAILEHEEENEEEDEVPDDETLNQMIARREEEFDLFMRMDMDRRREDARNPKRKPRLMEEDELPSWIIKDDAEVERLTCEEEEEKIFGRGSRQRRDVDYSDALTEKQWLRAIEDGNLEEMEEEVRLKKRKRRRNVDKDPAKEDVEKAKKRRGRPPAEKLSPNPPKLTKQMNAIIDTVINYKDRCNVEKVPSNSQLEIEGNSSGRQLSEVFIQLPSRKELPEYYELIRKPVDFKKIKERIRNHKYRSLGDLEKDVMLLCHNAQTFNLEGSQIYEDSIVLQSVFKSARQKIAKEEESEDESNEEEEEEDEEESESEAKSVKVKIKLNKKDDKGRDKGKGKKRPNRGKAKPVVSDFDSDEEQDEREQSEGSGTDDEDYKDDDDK

IC50 [1, 3]: > 50 µM
IC50 [2, 4]: > 50 µM
SMILES: CCn1cc(NC(=O)c2ccc(=O)n(-c3ccccc3F)n2)ccc1=O [Compound 1a]

IC50 [1, 5]: > 50 µM
IC50 [2, 6]: > 50 µM
SMILES: CC(=O)c1cc(C(=O)Nc2c[nH]c(=O)c(C)c2)ccc1C [Compound 1b]

IC50 [1, 7]: 0.402 µM
IC50 [2, 8]: > 50 µM
SMILES: O=C(Nc1cc(F)c(=O)n(CC(F)F)c1)c1nnc(Cl)o1 [Compound 1c]

IC50 [1, 9]: > 50 µM
IC50 ([2]; FL-SMARCA4 IC50): > 50 µM
SMILES: CCn1cc(NC(=O)C(=O)c2ccc(Cl)s2)ccc1=O [Compound 1d]

IC50 [1, 10]: 33.2 µM
IC50 [2, 11]: > 50 µM
SMILES: Cn1cc(NC(=O)c2coc(Br)c2)cc(Cl)c1=O [Compound 2]

IC50 [1, 3]: > 50 µM
IC50 [2, 4]: > 50 µM
SMILES: CC(C)COc1ncccc1C(=O)Nc1cc(Cl)c(=O)n(C)c1 [Compound 2a]

IC50 [1, 5]: > 50 µM
IC50 [2, 6]: > 50 µM
SMILES: Cc1c(Cl)cccc1C(=O)Nc1c[nH]c(=O)c(C)c1 [Compound 2b]

IC50 [1, 7]: 24.6 µM
IC50 [2, 8]: > 50 µM
SMILES: C[S+]([O-])c1cc(C(=O)Nc2cc(F)c(=O)n(CC(F)F)c2)sc1Cl (centres unmarked) [Compound 2c]

IC50 [1, 9]: > 50 µM
IC50 ([2]; FL-SMARCA4 IC50): > 50 µM
SMILES: Cc1cc(C)n(-c2ccc(C(=O)Nc3cn(C)c(=O)cc3C)cn2)n1 [Compound 2d]

IC50 [1, 10]: > 50 µM
IC50 [2, 11]: > 50 µM
SMILES: CCn1cc(NC(=O)c2nc(-c3ccc(OC)cc3)oc2C)ccc1=O [Compound 3]

IC50 [1, 3]: > 50 µM
IC50 [2, 4]: > 50 µM
SMILES: CCn1cc(NC(=O)[C@@H]2C[C@H](OC)CN2C)ccc1=O [Compound 3a]

IC50 [1, 5]: > 50 µM
IC50 [2, 6]: > 50 µM
SMILES: CCn1cc(NC(=O)C2C(C)(C)C2(C)C)ccc1=O [Compound 3b]

IC50 [1, 7]: 40 µM
IC50 [2, 8]: > 50 µM
SMILES: COCc1cc(NC(=O)c2cc(F)c(Cl)s2)cn(CC(F)F)c1=O [Compound 3c]

IC50 [1, 9]: > 50 µM
IC50 ([2]; FL-SMARCA4 IC50): > 50 µM
SMILES: Cn1cc(NC(=O)C(C)(C)Oc2ccc(C#N)cc2)cc(Cl)c1=O [Compound 3d]

IC50 [1, 10]: > 50 µM
IC50 [2, 11]: > 50 µM
SMILES: Cc1cc(NC(=O)c2cnn(-c3cccc(Cl)c3)c2C)c[nH]c1=O [Compound 4]

IC50 [1, 3]: > 50 µM
IC50 [2, 4]: > 50 µM
SMILES: COC1(C(=O)Nc2ccc(=O)n(Cc3ccccc3Cl)c2)CCNCC1 [Compound 4a]

IC50 [1, 5]: 42 µM
IC50 [2, 6]: > 50 µM
SMILES: CCn1cc(NC(=O)c2ccc(Cl)c(Cl)c2)ccc1=O [Compound 4b]

IC50 [1, 7]: 6.98 µM
IC50 [2, 8]: 18.1 µM
SMILES: O=C(Nc1cc(C#CCO)c(=O)n(CC(F)F)c1)c1cc(F)c(Cl)s1 [Compound 4c]

IC50 [1, 9]: 32 µM
IC50 ([2]; FL-SMARCA4 IC50): > 50 µM
SMILES: Cc1cc(=O)n(C)cc1NC(=O)C1CCCN(Cc2ccccc2)C1 (centres unmarked) [Compound 4d]

IC50 [1, 10]: > 50 µM
IC50 [2, 11]: > 50 µM
SMILES: CCn1cc(NC(=O)c2cnc(-c3ccc4c(c3)CCO4)s2)ccc1=O [Compound 5]

IC50 [1, 3]: > 50 µM
IC50 [2, 4]: > 50 µM
SMILES: CCn1cc(NC(=O)[C@H]2CCC(=O)N(C)[C@@H]2c2ccncc2)ccc1=O [Compound 5a]

IC50 [1, 5]: > 50 µM
IC50 [2, 6]: > 50 µM
SMILES: CCn1cc(NC(=O)c2cc(Cl)cc(Cl)c2)ccc1=O [Compound 5b]

IC50 [1, 9]: > 50 µM
IC50 ([2]; FL-SMARCA4 IC50): > 50 µM
SMILES: COc1cccc(-c2nc(C(=O)Nc3cn(C)c(=O)cc3C)cs2)c1OC [Compound 5d]

IC50 [1, 10]: > 50 µM
IC50 [2, 11]: > 50 µM
SMILES: CCn1cc(NC(=O)c2csc(-c3ccc(C)n3C)n2)ccc1=O [Compound 6]

IC50 [1, 3]: > 50 µM
IC50 [2, 4]: > 50 µM
SMILES: O=C(Nc1ccc(=O)n(Cc2ccccc2Cl)c1)C1COCCN1 (centres unmarked) [Compound 6a]

IC50 [1, 5]: > 50 µM
IC50 [2, 6]: > 50 µM
SMILES: CCn1cc(NC(=O)c2cccc(Cl)c2)ccc1=O [Compound 6b]

IC50 [1, 7]: 0.901 µM
IC50 [2, 8]: 0.679 µM
SMILES: O=C(Nc1cc(F)c(=O)n(CC(F)F)c1)c1cc(C#Cc2cn3ccccc3n2)c(Cl)s1 [Compound 6c]

IC50 [1, 9]: 22.4 µM
IC50 ([2]; FL-SMARCA4 IC50): > 50 µM
SMILES: O=C(CNCC1CC1)Nc1ccc(=O)n(Cc2ccccc2Cl)c1 [Compound 6d]

IC50 [1, 10]: > 50 µM
IC50 [2, 11]: > 50 µM
SMILES: Cc1nc(-c2cc(C(=O)Nc3ccc(=O)n(C)c3)n(C)c2)cs1 [Compound 7]

IC50 [1, 3]: > 50 µM
IC50 [2, 4]: > 50 µM
SMILES: C[C@H]1OCC(=O)N(Cc2ccccc2)[C@@H]1C(=O)Nc1ccc(=O)n(C)c1 [Compound 7a]

IC50 [1, 5]: > 50 µM
IC50 [2, 6]: > 50 µM
SMILES: CCn1cc(NC(=O)c2ccc(Cl)cc2)ccc1=O [Compound 7b]

IC50 [1, 7]: > 50 µM
IC50 [2, 8]: > 50 µM
SMILES: CN(C)CCCc1cc(NC(=O)c2cc(F)c(Cl)s2)cn(CC(F)F)c1=O [Compound 7c]

IC50 [1, 9]: > 50 µM
IC50 ([2]; FL-SMARCA4 IC50): > 50 µM
SMILES: Cc1cc(=O)n(C)cc1NC(=O)[C@@H]1CCCO[C@H]1c1cn[nH]c1 [Compound 7d]

IC50 [1, 10]: > 50 µM
IC50 [2, 11]: > 50 µM
SMILES: Cn1cc(NC(=O)c2cc(Cl)cs2)cc(Br)c1=O [Compound 8]
